This is an account of results in US8022103B2, “Ester prodrugs of prostratin and related phorbol compounds” (Salvia Sciences, Inc., priority 2005, dated 2011).

Common to all, as to assay type: cell-based
In one data set the test system is HIV-1Ba-L. As to the kind of experiment: PBMC antiviral assay, HIV-1Ba-L. Particulars: human PBMCs. On the procedure: (§1) Compounds SA-101A and SA-101B were tested for antiviral activity against HIV-1 in peripheral blood mononuclear cells (PBMC) acutely infected with the HIV-1 isolates. PBMCs were derived from normal HIV-1 negative donors, and cultured under conditions which promote cell survival and HIV replication. Fresh human blood was obtained commercially from Biological Specialty Corporation (Colmar, Pa.). The low passage clinical isolates HIV-1Ba-L, HIVIIIB, and SIVmac251 were from the NIAID AIDS Research and Reference Reagent Program. Immediately before use, pre-titered aliquot of the viruses were removed from storage in a freezer (−80° C.) and thawed rapidly to room temperature in a biological safety cabinet. Phytohemagglutinin (PHA-P) was obtained from Sigma (St. Louis, Mo.) and recombinant IL-2 was obtained from R&D Systems Inc. (Minneapolis, Minn.). Antiviral activity was tested from a high-test concentration of 100 μM or 100 μg/ml with nine ½-log serial dilutions of the compound to derive applicable IC50 (concentration inhibition virus replication by 50%), IC90 (concentration inhibition virus replication by 90%), TC50 (concentration decreasing cell viability by 50%) and TI (therapeutic index: TC50/IC50) values.
Preparation of PMBC. Fresh Human PBMCs, Seronegative for HIV and HBV, were isolated from screened donors (Interstate Blood Bank, Inc. Memphis, Tenn.). Cells were pelleted/washed 2-3 times by low speed centrifugation and resuspensded in PBS to remove contaminating platelets. The leukophoresed blood was then diluted 1:1 with Dulbecco's Phosphate Buffered Saline (DPBS) and layered over 14 mL of Lymphocyte Separation Medium (LSM; Cellgro® by Mediatech, Inc.; density 1.078+/−0.002 g/ml; Cat. # 85-072-CL) in a 50 mL centrifuge tube and then centrifuged for 30 minutes at 600×g. Banded PBMCs were gently aspirated from the resulting interface and subsequently washed 2× with PBS by low speed centrifugation. After the final wash, cells were enumerated by trypan blue exclusion and re-suspended at 1×10^7 cells/mL in RPMI 1640 supplemented with 15% Fetal Bovine Serum (FBS), and 2 mM L-glutamine, 4 μg/mL Phytohemagglutinin (PHA-P, Sigma). The cells were allowed to incubate for 48-72 hours at 37° C. After incubation, PBMCs were centrifuged and re-suspended in RPMI 1640 with 15% FBS, 2 mM L-glutamine, 100 U/mL penicillin, 100 μg/mL streptomycin, 10 μg/mL gentamycin, and 20 U/mL recombinant human IL-2 (R&D Systems, Inc). […]
(§2) PMBC assay. […] Pooling (mixing) of mononuclear cells from more than one donor is used to minimize the variability observed between individual donors, which results from quantitative and qualitative differences in HIV infection and overall response to the PHA and IL-2 of primary lymphocyte populations. […]

The test system of a further data set is HIV-1IIIB. As to the kind of experiment: PBMC antiviral assay, HIV-1IIIB. To be noted: human PBMCs. On the procedure:
as §1
Preparation of PMBC. Fresh Human PBMCs, Seronegative for HIV and HBV, were isolated from screened donors (Interstate Blood Bank, Inc. Memphis, Tenn.). Cells were pelleted/washed 2-3 times by low speed centrifugation and resuspensded in PBS to remove contaminating platelets. The leukophoresed blood was then diluted 1:1 with Dulbecco's Phosphate Buffered Saline (DPBS) and layered over 14 mL of Lymphocyte Separation Medium (LSM; Cellgro® by Mediatech, Inc.; density 1.078+/−0.002 g/ml; Cat. # 85-072-CL) in a 50 mL centrifuge tube and then centrifuged for 30 minutes at 600×g. […]
as §2

A further data set deals with Human PBMCs. As to the kind of experiment: MTS staining for PBMC viability (cytotoxicity). Particulars: for Cytotoxicity: at the concentrations evaluated. How it is done: PMBC assay. For the standard PBMC assay, PHA-P stimulated cells from at least two normal donors were pooled (mixed together), diluted in fresh medium to a final concentration of 1×10^6 cells/mL, and plated in the interior wells of a 96 well round bottom microplate at 50 μL/well (5×10^4 cells/well) in a standard format developed by the Infectious Disease Research department of Southern Research Institute. Pooling (mixing) of mononuclear cells from more than one donor is used to minimize the variability observed between individual donors, which results from quantitative and qualitative differences in HIV infection and overall response to the PHA and IL-2 of primary lymphocyte populations. Each plate contains virus/cell control wells (cells plus virus), experimental wells (drug plus cells plus virus) and compound control wells ([…], necessary for MTS monitoring of cytotoxicity). Since HIV-1 is not cytopathic to PBMCs, this allows the use of the same assay plate for both antiviral activity and cytotoxicity measurements. Test drug dilutions were prepared at a 2× concentration in microtiter tubes and 100 μL of each concentration was placed in appropriate wells using the standard format. 50 μL of a predetermined dilution of virus stock was placed in each test well (final MOI˜0.1). The PBMC cultures were maintained for seven days following infection at 37° C., 5% CO2. After this period, cell-free supernatant samples were collected for analysis of reverse transcriptase activity and/or HIV p24 content. Following removal of supernatant samples, compound cytotoxicity was measured by addition of MTS to the plates for determination of cell viability. Wells were also examined microscopically and any abnormalities were noted.
MTS staining for PBMC viability to measure cytotoxicity. At assay termination, assay plates were stained with the soluble tetrazolium-based dye MTS (CellTiter 96 Reagent, Promega) to determine cell viability and quantify compound toxicity. The mitochondrial enzymes of metabolically active cells metabolize MTS to yield a soluble formazan product. This allows the rapid quantitative analysis of cell viability and compound cytotoxicity. […] At termination of the assay, 20 μL of MTS reagent was added per well. The microtiter plates were then incubated 4 6 hrs at 37° C. The incubation intervals were chosen based on empirically determined times for optimal dye reduction. Adhesive plate sealers were used in place of the lids, the sealed plate was inverted several times to mix the soluble formazan product and the plate was read spectrophotometrically at 490/650 ηm with a Molecular Devices Vmax or SpectraMaxPlus plate reader.
Data analysis. Using an in-house computer program, IC50 (50%, inhibition of virus replication), IC90 (90%, inhibition of virus replication), IC95 (95%, inhibition of virus replication), TC50 (50% reduction in cell viability), TC90 (90% reduction in cell viability), TC95 (95% reduction in cell viability), and a therapeutic index (TI=TC50/IC50) were determined. AZT (nucleoside reverse transcriptase inhibitor) was used as a positive control antiviral compound.

[1] abbreviates: Human immunodeficiency virus 1, PBMC, read-out: IC90.

Converted amounts (≈) assume the structure as drawn. Where two headings read alike, the source gives them in different places. Some results are limits rather than exact numbers.

A word on the IC50: it is the concentration that inhibits the measured activity by half. The term IC90 denotes the concentration needed for an effect of 90%.

Turning to `CC(=O)OC12CC(C)C3(O)C(C=C(COC(=O)CCC(=O)O)CC4(O)C(=O)C(C)=CC43)C1C2(C)C` (stereo not drawn) [SA-101B, Prostratin Succinate], the concentration for half-maximal inhibition (IC50) with HIV-1Ba-L (40% Human AB serum) was found to be 0.0007 µg/mL. Besides, the IC90 in the data set with HIV-1Ba-L (40% Human AB serum) and in the data set on HIV-1IIIB (40% Human AB serum) was more than 1.00 µg/mL each time. For the same molecule, in the data set on Human PBMCs (40% human AB serum), the Cytotoxicity result was “no cytotoxicity”. In addition, the TC50 in the data set with Human PBMCs (HIV-1Ba-L assay plate, 40% Human AB serum) is more than 1.00 µg/mL; in the data set with Human PBMCs (HIV-1IIIB assay plate, 40% Human AB serum) it was more than 1.00 µg/mL; with Human PBMCs (SIVMac251 assay plate, 40% Human AB serum) it was more than 1.00 µg/mL.
Consider `CC(=O)O[C@@]12C[C@@H](C)[C@@]3(O)[C@@H](C=C(CO)C[C@]4(O)C(=O)C(C)=C[C@@H]34)[C@@H]1C2(C)C` [SA-101A, 12-deoxyphorbol 13-acetate], for which the IC50 in the data set with HIV-1Ba-L (Human immunodeficiency virus 1, PBMC, read-out: IC50) was determined as 0.05 µg/mL (≈ 0.128 µM); in the data set on HIV-1IIIB (Human immunodeficiency virus 1, PBMC) it was 0.09 µg/mL (≈ 0.23 µM). The figures for the IC90 with HIV-1Ba-L (setting [1]) and with HIV-1IIIB (setting [1]) were 0.39 µg/mL (≈ 0.999 µM) and 0.5 µg/mL (≈ 1.28 µM), respectively. The TC50 in the data set on Human PBMCs (HIV-1Ba-L assay plate), with Human PBMCs (HIV-1IIIB assay plate) and in the data set on Human PBMCs (SIVMac251 assay plate) was more than 1.00 µg/mL each time. In the data set on Human PBMCs, the Cytotoxicity result is recorded as “no cytotoxicity”.
